Like-named read-outs stand apart in the source and are kept apart here.
What was measured:
BT474 = test: Cytotoxicity assay (SRB), BT474; format: cell-based; details: Homo sapiens, BT-474, 144 h, read-out: In Vitro Cellular Activity IC50 BT474
Outline: (§1)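 Overnight-seeded monolayers (4000–12000 cells/well by line) receive compound in 5% FBS medium at 37 °C, 7% CO2. After 3 d, or 6 d for BT474, cellular protein is fixed with cold TCA, stained with SRB and read at 540 nm against untreated wells.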

HCT-116 = test: Cytotoxicity assay (SRB), HCT-116; format: cell-based; details: Homo sapiens, HCT-116, 72 h, read-out: In Vitro Cellular Activity IC50 HCT116
Outline: as §1

cyclin B/CDK1 enzyme = molecular target: T1, cyclin B/CDK1 enzyme (Homo sapiens, UniProt P06493); test: CDK1 ELISA kinase assay (phospho-Rb ser 795 detection); format: biochemical
T1 construct: purchased New England BioLabs; host or cells: Sf9 insect cells, recombinant baculovirus
T1 sequence (P06493 whole entry): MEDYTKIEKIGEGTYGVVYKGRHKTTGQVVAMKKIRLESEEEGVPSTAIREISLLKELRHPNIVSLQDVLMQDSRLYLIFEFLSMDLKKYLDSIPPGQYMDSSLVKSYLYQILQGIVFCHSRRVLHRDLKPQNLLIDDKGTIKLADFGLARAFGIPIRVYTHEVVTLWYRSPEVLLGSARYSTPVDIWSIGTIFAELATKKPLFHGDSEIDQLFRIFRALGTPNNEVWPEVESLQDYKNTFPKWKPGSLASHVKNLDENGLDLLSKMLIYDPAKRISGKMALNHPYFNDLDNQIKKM
T1 sequence (P14635 whole entry partner): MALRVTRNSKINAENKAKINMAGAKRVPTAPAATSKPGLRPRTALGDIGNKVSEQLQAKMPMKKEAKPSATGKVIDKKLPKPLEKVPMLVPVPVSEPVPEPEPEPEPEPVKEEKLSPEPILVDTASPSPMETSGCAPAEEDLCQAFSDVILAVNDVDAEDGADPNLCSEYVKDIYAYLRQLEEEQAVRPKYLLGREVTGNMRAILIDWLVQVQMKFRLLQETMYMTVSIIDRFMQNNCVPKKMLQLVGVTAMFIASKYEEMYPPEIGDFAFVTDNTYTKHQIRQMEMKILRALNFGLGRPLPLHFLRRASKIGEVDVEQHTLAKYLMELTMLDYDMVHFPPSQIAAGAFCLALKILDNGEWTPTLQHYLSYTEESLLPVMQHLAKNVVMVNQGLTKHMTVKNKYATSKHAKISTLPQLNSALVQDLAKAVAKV
Outline: (§2)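 Wells were coated overnight with GST-Rb C-terminal fragment, then blocked. Compound (10 ug/ml final) and cyclin/CDK enzyme from baculovirus-infected Sf9 cells with 200 μM ATP reacted 1 h at 30° C. Ser795 phosphorylation was detected by ELISA at 450 nm.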

cyclin E/CDK2 enzyme = molecular target: T2, cyclin E/CDK2 enzyme (Homo sapiens, UniProt P24941); test: CDK2 ELISA kinase assay (phospho-Rb ser 795 detection); format: biochemical
T2 construct: made in house; host or cells: Sf9 insect cells, recombinant baculovirus
Outline: as §2

MCF-7 = test: Cytotoxicity assay (SRB), MCF-7; format: cell-based; details: Homo sapiens, MCF7, 72 h, read-out: In Vitro Cellular Activity IC50 MCF-7
Outline: as §1

cyclin D1/cdk 4 enzyme = molecular target: T3, cyclin D1/cdk 4 enzyme (Homo sapiens, UniProt P11802); test: CDK4 ELISA kinase assay (phospho-Rb ser 795 detection); format: biochemical
T3 construct: made in house; host or cells: Sf9 insect cells, recombinant baculovirus
T3 sequence (P11802 whole entry, species assumed): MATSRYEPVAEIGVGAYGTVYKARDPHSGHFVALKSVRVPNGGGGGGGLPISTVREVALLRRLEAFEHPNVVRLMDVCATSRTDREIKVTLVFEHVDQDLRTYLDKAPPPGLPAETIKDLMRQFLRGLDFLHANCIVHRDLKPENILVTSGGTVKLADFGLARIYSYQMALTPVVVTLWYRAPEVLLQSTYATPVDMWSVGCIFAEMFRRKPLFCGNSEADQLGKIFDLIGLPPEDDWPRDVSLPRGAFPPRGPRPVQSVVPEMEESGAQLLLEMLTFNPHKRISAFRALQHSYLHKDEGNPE
T3 sequence (P24385 whole entry partner, species assumed): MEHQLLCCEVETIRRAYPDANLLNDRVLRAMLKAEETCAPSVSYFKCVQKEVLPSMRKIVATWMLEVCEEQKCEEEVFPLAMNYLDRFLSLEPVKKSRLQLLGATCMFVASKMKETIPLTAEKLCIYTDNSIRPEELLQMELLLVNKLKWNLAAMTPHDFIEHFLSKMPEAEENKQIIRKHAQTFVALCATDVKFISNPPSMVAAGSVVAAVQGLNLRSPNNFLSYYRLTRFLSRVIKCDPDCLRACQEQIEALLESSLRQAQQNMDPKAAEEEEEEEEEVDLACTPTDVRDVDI
Outline: as §2

LoVo = test: Cytotoxicity assay (SRB), LoVo; format: cell-based; details: Homo sapiens, LoVo, 72 h, read-out: In Vitro Cellular Activity IC50 LOVO
Outline: as §1

[1] = In Vitro Enzyme Assays, read-out: CDK1 IC50
[2] = In Vitro Enzyme Assays, read-out: CDK2 IC50
[3] = In Vitro Enzyme Assays, 200 μM ATP, read-out: CDK4 IC50
[4] = In Vitro Enzyme Assay, cyclin B/CDK1, read-out: CDK1 IC50
[5] = In Vitro Enzyme Assay, cyclin E/CDK2, read-out: CDK2 IC50
[6] = In Vitro Enzyme Assay, cyclin D1/cdk 4, read-out: CDK4 IC50

Row | Structure (SMILES) | IC50 (BT474; BT474 cells, SRB, 6 days) | IC50 (HCT-116; HCT116 cells, SRB, three days) | melting point | IC50 (cyclin B/CDK1 enzyme; [1]) | IC50 (cyclin E/CDK2 enzyme; [2]) | IC50 (MCF-7; MCF-7 cells, SRB, three days) | IC50 (cyclin D1/cdk 4 enzyme; [3]) | IC50 (LoVo; LoVo cells, SRB, three days) | IC50 (BT474; BT474 cells, 6 days, SRB) | IC50 (HCT-116; HCT116 cells, 3 days, SRB) | IC50 (cyclin B/CDK1 enzyme; [4]) | IC50 (cyclin E/CDK2 enzyme; [5]) | IC50 (MCF-7; MCF-7 cells, 3 days, SRB) | IC50 (cyclin D1/cdk 4 enzyme; [6]) | IC50 (LoVo; LoVo cells, 3 days, SRB) | IC50 (BT474) | IC50 (HCT-116) | IC50 (MCF-7) | IC50 (LoVo)
1 | O=C1NCc2ccccc2C1=CNc1ccc(CCN2CCCC2)cc1 [Example 170, 4-{[4-(2-Pyrrolidin-1-yl-ethyl)-phenylamino]-methylene}-1,4-dihydro-2H-isoquinolin-3-one] | 27000 nM | 6200 nM | 169 to 173 °C (dec.) | > 50000 nM | > 50000 nM | 11000 nM | 46500 nM | 21000 nM |  |  |  |  |  |  |  |  |  |  | 
2 | CN1CCC(c2ccc(N/C=C3\C(=O)NC(=O)c4ccc(Br)cc43)cc2)CC1 [Example 344, (4Z)-6-Bromo-4-({[4-(1-methylpiperidin-4-yl)phenyl]amino}methylene)isoquinoline-1,3(2H,4H)-dione] | 4200 nM | 2600 nM | 217 to 218 °C | > 50000 nM | > 50000 nM | 1600 nM | 460 nM | 2800 nM |  |  |  |  |  |  |  |  |  |  | 
3 | CCCOc1ccc(CN/C=C2\C(=O)NC(=O)c3cc(OC)c(Br)cc32)cc1O [Example 246, 6-Bromo-4-[(3-hydroxy-4-propoxy-benzylamino)-methylene]-7-methoxy-4H-isoquinoline-1,3-dione] | 2000 nM | 22000 nM | 212 to 214 °C (dec.) | > 50000 nM | > 50000 nM | > 50000 nM | 28300 nM | 37000 nM |  |  |  |  |  |  |  |  |  |  | 
4 | COCCOc1ccc(CN/C=C2\C(=O)NC(=O)c3ccc(Br)cc32)cc1O [Example 158] | 28000 nM | 32000 nM | 179 to 180 °C | > 50000 nM | > 50000 nM | > 50000 nM | 40 nM | 30000 nM |  |  |  |  |  |  |  |  |  |  | 
5 | COC(=O)Nc1ccc(CN/C=C2\C(=O)NC(=O)c3ccc(Br)cc32)cc1OC(=O)OC [Example 184, 5-({[(Z)-(6-Bromo-1,3-dioxo-2,3-dihydroisoquinolin-4(1H)-′ylidene)methyl]amino}methyl)-2-[(methoxycarbonyl)amino]phenyl methyl carbonate] | 8500 nM | 13000 nM | 179 to 180 °C | > 50000 nM | 41500 nM | 50000 nM | 6000 nM | 20000 nM |  |  |  |  |  |  |  |  |  |  | 
6 | CN(C)c1ccc(CN/C=C2\C(=O)NC(=O)c3ccc(I)cc32)cc1O [Example 347, (4Z)-4-({[4-(Dimethylamino)-3-hydroxybenzyl]amino}methylene)-6-iodoisoquinoline-1,3(2H,4H)-dione] | 2400 nM | 3100 nM | 198 to 199 °C | 6700 nM | 1500 nM | 2200 nM | 5 nM | 2700 nM |  |  |  |  |  |  |  |  |  |  | 
7 | CN1CCC(c2ccc(N/C=C3\C(=O)NC(=O)c4ccc(-c5ccsc5)cc43)cc2)CC1 [Example 327, (4Z)-4-({[4-(1-Methylpiperidin-4-yl)phenyl]amino}methylene)-6-thien-3-ylisoquinoline-1,3(2H,4H)-dione] | 2500 nM | 1500 nM | 217 to 218 °C | > 50000 nM | > 50000 nM | 2200 nM | 60 nM | 2900 nM |  |  |  |  |  |  |  |  |  |  | 
8 | CC(=O)N1CCC(c2ccc(N/C=C3\C(=O)NC(=O)c4ccc(-c5ccoc5)cc43)cc2)CC1 [Example 351, (4Z)-4-({[4-(1-Acetylpiperidin-4-yl)phenyl]amino}methylene)-6-(3-furyl)isoquinoline-1,3(2H,4H)-dione] | 1100 nM | 3000 nM | 178 to 179 °C | > 50000 nM | > 50000 nM | 2100 nM | 130 nM | 2700 nM |  |  |  |  |  |  |  |  |  |  | 
9 | COC[C@@H]1CCCN1Cc1ccc(N/C=C2\C(=O)NC(=O)c3ccc(-c4ccco4)cc32)cc1 [Example 467, (4Z)-6-(2-Furyl)-4-{[(4-{[(2S)-2-(methoxymethyl)pyrrolidin-1-yl]methyl}phenyl)amino]methylene}isoquinoline-1,3(2H,4H)-dione] |  |  | 159 to 160 °C |  |  |  |  |  | 3600 nM | 2300 nM | > 50000 nM | > 50000 nM | 1900 nM | 210 nM | 2400 nM |  |  |  | 
10 | COc1cc(CN/C=C2\C(=O)NC(=O)c3ccc(-c4ccc(Oc5ccccc5)cc4)cc32)cc(O)c1OC [Example 100, (4Z)-6-(4-Phenoxyphenyl)-4-{[(3-hydroxy-4,5-dimethoxybenzyl)amino]methylene}isoquinoline-1,3(2H,4H)-dione] | 8800 nM | 13600 nM | 240 to 241 °C | > 50000 nM | > 50000 nM | 11000 nM | 340 nM | 27800 nM |  |  |  |  |  |  |  |  |  |  | 
11 | C[C@@H]1CN(c2ccc(N/C=C3\C(=O)NC(=O)c4ccc(-c5ccoc5)cc43)nc2)C[C@H](C)N1 [Example 468, (4Z)-4-[({5-[(3R,5S)-3,5-Dimethylpiperazin-1-yl]pyridin-2-yl}amino)methylene]-6-(3-furyl)isoquinoline-1,3(2H,4H)-dione] |  |  | 230 to 231 °C |  |  |  |  |  | 2100 nM | 1100 nM | > 50000 nM | > 50000 nM | 1500 nM | 170 nM | 1600 nM |  |  |  | 
12 | COc1cnc(CN/C=C2\C(=O)NC(=O)c3ccc(Br)cc32)cc1O [Example 332, 6-Bromo-4-{[(4-hydroxy-5-methoxy-pyridin-2-ylmethyl)-amino]-methylene}-4H-isoquinoline-1,3-dione] | 540 nM | 3500 nM | 209 to 211 °C (dec.) | 21300 nM | 2200 nM | 3200 nM | 120 nM | 1300 nM |  |  |  |  |  |  |  |  |  |  | 
13 | COc1ccc(-c2ccc3c(c2)/C(=C/Nc2ccc(CN4CCCC4C)cc2)C(=O)NC3=O)cc1 (stereo not shown) [Example 358, (4Z)-6-(4-Methoxyphenyl)-4-[({4-[(2-methylpyrrolidin-1-yl)methyl]phenyl}amino)-methylene]-isoquinoline-1,3(2H,4H)-dione] | 2600 nM | 1400 nM | 232 to 233 °C | 35500 nM | 43400 nM | 2500 nM | 310 nM | 3000 nM |  |  |  |  |  |  |  |  |  |  | 
14 | CN1CCN(c2ccc(N/C=C3\C(=O)NC(=O)c4ccc(Br)cc43)cc2F)CC1 [Example 288, (4Z)-6-Bromo-4-({[3-fluoro-4-(4-methylpiperazin-1-yl)phenyl]amino}methylene)-isoquinoline-1,3(2H,4H)-dione] | 1800 nM | 1700 nM | 206 to 207 °C | > 50000 nM | > 50000 nM | 1500 nM | 2900 nM | 2000 nM |  |  |  |  |  |  |  |  |  |  | 
15 | O=C1NC(=O)c2ccc(-c3ccsc3)cc2/C1=C/Nc1ccc(N2CCC(N3CCCC3)CC2)nc1 [Example 408] |  |  | 203 to 204 °C | > 50000 nM | > 50000 nM |  | 120 nM |  |  |  |  |  |  |  |  | 2400 nM | 2500 nM | 5100 nM | 2600 nM
16 | O=C1NC(=O)c2ccc(I)cc2/C1=C/NCc1ccc(Cl)c(O)c1 [Example 165, (4Z)-4-{[(4-Chloro-3-hydroxybenzyl)amino]methylene}-6-iodoisoquinoline-′1,3(2H,4H)-dione] | > 50000 nM | 23000 nM | 324 to 325 °C | > 50000 nM | 18900 nM | > 50000 nM | 200 nM | > 50000 nM |  |  |  |  |  |  |  |  |  |  | 
17 | O=C1NC(=O)c2ccc(Br)cc2/C1=C/NCc1ccc(OCC2CC2)c(O)c1 [Example 219, (4Z)-6-Bromo-4-({[4-(cyclopropylmethoxy)-3-′hydroxybenzyl]amino}methylene)isoquinoline-1,3(2H,4H)-dione] | 1900 nM | 2800 nM | 210 to 211 °C | > 50000 nM | > 50000 nM | 32000 nM | 270 nM | 6900 nM |  |  |  |  |  |  |  |  |  |  | 

— patent US7713994B2 (Wyeth LLC, priority 2005, dated 2010)
